{"source": "patent US8653261B2", "about": "“Modified actinomycin-based nucleic acid stains and methods of their use” (priority 2008, dated 2014)", "key": {"Jurkat T cells": {"system": "Jurkat T cells", "assay": "Imaging flow cytometry of stained Jurkat cells with camptothecin treatment", "format": "cell-based", "conditions": "1 μM camptothecin, 4 hours", "protocol": "Jurkat T cells were incubated in the presence or absence of 1 μM camptothecin (CPT) for 4 hours to induce apoptosis, then stained with 2.5 μM Compound 7 for 15 minutes at room temperature and analyzed on an AMNIS ImageStream multispectral imaging flow cytometer. Gating on 10,000 collected events with intermediate brightfield (BF) area and high BF aspect ratio (width:height) was performed to distinguish single cells from debris and multi-cellular clumps. Cells with nuclear dye uptake were gated (R3) on the Intensity 180 plot. Cells untreated with camptothecin are shown in the top middle histogram of FIG. 3, with 8.0% stain positive (dead cells) as identified in the R3 gate. The positively stained cells show typical brightfield morphology of dead cells, while the cells negative (live cells) show typical brightfield morphology of live cells.\nCells treated with the apoptotic inducing agent camptothecin (FIG. 3B) (bottom middle histogram), with 68.4% stain positive as identified in the R3 gate. The positively stained cells show typical brightfield morphology of dead cells and stained nuclei typical of apoptosis and cell death that is condensed and fragmented, while the cells negative for staining (live cells) show typical brightfield morphology of live cells. […] Cells negative for stain show morphology typical of healthy cells."}, "HeLa cells": {"system": "HeLa cells", "assay": "High content imaging of stained HeLa cells with valinomycin treatment", "format": "cell-based", "conditions": "for killing of HeLa cells: 24 hours", "protocol": "HeLa cells were either untreated or treated with two concentrations (15 μM and 120 μM) of valinomycin (VLM) as a killing agent for 24 hours before labeling with Compound 7 and with the nuclear counterstain Hoechst 33342 dye (Invitrogen Corporation, Carlsbad, Calif.). At 24 hours of treatment, normal cell growth medium containing 2× final concentration of Hoechst 33342 and Compound 7 was added to the existing medium to result in 1× final concentration. Cells were incubated for 30 minutes at 37° C. and then the drug/dye mixture was replaced with PBS for imaging using a high content automated imaging system (ArrayScan VTI from Thermo/Fisher) using a Texas Red filter set."}, "dead cells": {"system": "dead cells", "conditions": "dead cell identification; cited from earlier work"}, "fixed cells": {"system": "fixed cells", "conditions": "cited from earlier work"}}, "data": [{"smiles": "CC[C@@]1(O)C(=O)OCc2c1cc1n(c2=O)Cc2cc3ccccc3nc2-1", "note": "[camptothecin]", "values": [{"measurement": "cell death measurable by staining with Compound 7", "setting": "Jurkat T cells", "result": "induced significant cell death"}]}, {"smiles": "CC(C)[C@@H]1NC(=O)[C@H](C)OC(=O)[C@@H](C(C)C)NC(=O)[C@@H](C(C)C)OC(=O)[C@H](C(C)C)NC(=O)[C@H](C)OC(=O)[C@@H](C(C)C)NC(=O)[C@@H](C(C)C)OC(=O)[C@H](C(C)C)NC(=O)[C@H](C)OC(=O)[C@@H](C(C)C)NC(=O)[C@@H](C(C)C)OC1=O", "note": "[valinomycin]", "values": [{"measurement": "killing of HeLa cells", "setting": "HeLa cells; 15 μM valinomycin", "result": "less effective in killing HeLa cells"}, {"measurement": "killing of HeLa cells", "setting": "HeLa cells; 120 μM valinomycin", "result": "effective in killing HeLa cell"}]}, {"smiles": "CCOc1ccc(-c2nc3ccc(-c4nc5ccc(N6CCN(C)CC6)cc5[nH]4)cc3[nH]2)cc1", "note": "[Hoechst 33342]", "values": [{"measurement": "nuclear counterstain labeling of HeLa cells", "setting": "HeLa cells; untreated or valinomycin-treated cells", "result": "labeling both live and dead cells"}]}, {"smiles": "Cc1c2oc3c(C)c(N)cc(C(=O)N[C@@H]4C(=O)N[C@H](C(C)C)C(=O)N5CCC[C@H]5C(=O)N(C)CC(=O)N(C)[C@@H](C(C)C)C(=O)O[C@@H]4C)c3nc-2c(C(=O)N[C@@H]2C(=O)N[C@H](C(C)C)C(=O)N3CCC[C@H]3C(=O)N(C)CC(=O)N(C)[C@@H](C(C)C)C(=O)O[C@@H]2C)c(N)c1=O", "note": "[Compound 7-AAD, 7-aminoactinomycin D]", "values": [{"measurement": "time of staining process to fully equilibrate", "setting": "dead cells", "result": "about 30 minutes"}, {"measurement": "variability of DNA content cell cycle histogram (% CV of the G0G1 peak)", "setting": "fixed cells", "result": "high degree of variability"}]}]}
